Among the test systems are NCI/ADR-RES ovarian; KM12 colon; RXF 393 renal; SF-295 CNS; SNB-19 CNS; BT-549 breast; HL-60(TB) leukemia; UACC-257 melanoma; RPMI-8226 leukemia; SF-539 CNS.
Holding throughout (assay): DTP human tumour cell line panel, 48 h

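1) Cells in 96-well plates. 2) Compound, 48 h, 5 concentrations. 3) Linear interpolation between surrounding doses. 4) Unreached endpoint = highest concentration. GI50 = concentration required for 50% inhibition of growth. TGI denotes the concentration required for complete inhibition of growth.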 A value given as a limit tells only on which side of the number the result lay.

As a reminder, the TGI is the concentration giving total growth inhibition. Lower therefore signals greater sensitivity of the cells. `O=C(O)CN1C(=O)CN=C(c2ccccn2)c2cc(Cl)ccc21`: the TGI in the assay on NCI/ADR-RES ovarian, with KM12 colon, with RXF 393 renal, in the assay on SF-295 CNS, in the assay with SNB-19 CNS and with BT-549 breast was more than 100 µM in each case. Besides, the TGI with HL-60(TB) leukemia is 22.9 µM; in the assay on UACC-257 melanoma it was more than 100 µM; with RPMI-8226 leukemia, more than 100 µM; in the assay with SF-539 CNS, more than 100 µM.

As usually defined, the GI50 is the concentration at which growth is held to half of that of the control. Take `O=C1/C(=C/c2ccc(F)cc2)CN(C(=O)C(Cl)Cl)C/C1=C\c1ccc(F)cc1`: the GI50 is 0.327 µM with NCI/ADR-RES ovarian; 0.107 µM with KM12 colon; 0.445 µM in the assay with RXF 393 renal; 0.23 µM in the assay with SF-295 CNS; 0.287 µM in the assay on SNB-19 CNS; 0.253 µM in the assay with BT-549 breast. For the same molecule, the GI50 is 0.229 µM in the assay on HL-60(TB) leukemia, 0.45 µM with UACC-257 melanoma, 0.0341 µM in the assay on RPMI-8226 leukemia and 0.269 µM with SF-539 CNS. Besides, the TGI in the assay with NCI/ADR-RES ovarian was determined as 1.71 µM; with KM12 colon, 0.336 µM; in the assay on RXF 393 renal it was 0.968 µM; in the assay with SF-295 CNS, 0.67 µM; with SNB-19 CNS, 1.25 µM; in the assay with BT-549 breast it was 0.81 µM. The TGI amounted to 1.55 µM in the assay on HL-60(TB) leukemia, 1.62 µM in the assay with UACC-257 melanoma, 0.324 µM with RPMI-8226 leukemia and 0.791 µM in the assay with SF-539 CNS.

For `Cc1ccc2[nH]c(O)c(N=Nc3ccccc3[N+](=O)[O-])c2c1`, the TGI was more than 40.2 µM with NCI/ADR-RES ovarian; more than 40.3 µM in the assay on KM12 colon; 20.8 µM in the assay on RXF 393 renal; more than 58.8 µM with SF-295 CNS; more than 81.1 µM in the assay on SNB-19 CNS; more than 94.3 µM in the assay with BT-549 breast. Also, the TGI in the assay on HL-60(TB) leukemia is more than 100 µM; with UACC-257 melanoma, more than 100 µM; in the assay with RPMI-8226 leukemia, more than 100 µM; in the assay on SF-539 CNS, 4.78 µM.

For the molecule `CCN(CC)CCCNc1n[n+]([O-])c2ccccc2[n+]1[O-]`, the TGI in the assay on NCI/ADR-RES ovarian is more than 100 µM; in the assay with KM12 colon, 63 µM; in the assay on RXF 393 renal it was 76.2 µM; in the assay with SF-295 CNS, 49.3 µM; in the assay on SNB-19 CNS, more than 100 µM; in the assay with BT-549 breast it was more than 100 µM. Also, the TGI in the assay on HL-60(TB) leukemia came to 19.7 µM; with UACC-257 melanoma, 54.7 µM; in the assay on RPMI-8226 leukemia it was 23.3 µM; in the assay with SF-539 CNS, 68.9 µM.

Turning to `Cc1c[nH]c(=O)n(Cc2nnc(CCC(=O)c3nc4ccccc4[nH]3)o2)c1=O`, the GI50 in the assay with NCI/ADR-RES ovarian is 14.7 µM; in the assay on KM12 colon, 0.414 µM; with RXF 393 renal, 0.697 µM; in the assay with SF-295 CNS, 0.728 µM; in the assay with SNB-19 CNS, 1.27 µM; in the assay with BT-549 breast it was 0.717 µM. In addition, the GI50 in the assay with HL-60(TB) leukemia was 0.966 µM; in the assay with UACC-257 melanoma it was 0.787 µM; in the assay on RPMI-8226 leukemia, 0.34 µM; in the assay with SF-539 CNS, 0.799 µM. Moreover, the TGI with NCI/ADR-RES ovarian was 63.8 µM; in the assay on KM12 colon, more than 33.1 µM; with RXF 393 renal it was 3.83 µM; in the assay on SF-295 CNS it was 9.48 µM; in the assay on SNB-19 CNS it was more than 100 µM; with BT-549 breast, 48.7 µM. For the same molecule, the TGI in the assay on HL-60(TB) leukemia was more than 100 µM; in the assay on UACC-257 melanoma, more than 100 µM; with RPMI-8226 leukemia it was more than 100 µM; in the assay with SF-539 CNS, 29.9 µM.

For `COc1ccccc1NC(=O)CC(=O)n1nc(C)c(N=Nc2ccccc2Cl)c1C`, the TGI with NCI/ADR-RES ovarian, in the assay on KM12 colon, with RXF 393 renal, in the assay with SF-295 CNS, with SNB-19 CNS and with BT-549 breast was more than 100 µM throughout. Further, the concentration for total growth inhibition (TGI) in the assay with HL-60(TB) leukemia, in the assay with UACC-257 melanoma, in the assay on RPMI-8226 leukemia and in the assay with SF-539 CNS was more than 100 µM throughout.

In the case of `O=C(Nc1cccc(C(F)(F)F)c1)c1ccc(NC2=C(Cl)C(=O)N(Cc3ccccc3)C2=O)cc1`, the GI50 in the assay with NCI/ADR-RES ovarian was 10.8 µM; with KM12 colon, 10.5 µM; with RXF 393 renal, 29.4 µM; with SF-295 CNS it was 10.1 µM; in the assay on SNB-19 CNS, 20.4 µM; in the assay on BT-549 breast it was 1.25 µM. For the same molecule, the GI50 with HL-60(TB) leukemia was 2.08 µM; with UACC-257 melanoma it was 27.9 µM; in the assay with RPMI-8226 leukemia it was 2.17 µM; with SF-539 CNS, 14.9 µM. Also, the TGI stood at 25.4 µM in the assay with NCI/ADR-RES ovarian; 24.8 µM in the assay with KM12 colon; 64.8 µM in the assay with RXF 393 renal; 23.6 µM in the assay with SF-295 CNS; 40.5 µM in the assay with SNB-19 CNS; 5.49 µM in the assay on BT-549 breast. The TGI with HL-60(TB) leukemia was found to be 5.64 µM; in the assay with UACC-257 melanoma, 58 µM; in the assay with RPMI-8226 leukemia, 4.88 µM; with SF-539 CNS it was 34.1 µM.

Regarding `O=S(=O)(O)n1ccnc1` (tested in a mixture with another compound), the TGI in the assay with NCI/ADR-RES ovarian, in the assay on KM12 colon, in the assay on RXF 393 renal, with SF-295 CNS, with SNB-19 CNS and in the assay on BT-549 breast was more than 100 µM in each case. In addition, the TGI in the assay on HL-60(TB) leukemia, with UACC-257 melanoma, in the assay with RPMI-8226 leukemia and in the assay with SF-539 CNS was more than 100 µM throughout.

As for `CC(=O)Nc1ccc(OC(C)=O)cc1`, the GI50 with NCI/ADR-RES ovarian is less than 0.0105 µM; in the assay with KM12 colon, less than 0.01 µM; in the assay on RXF 393 renal, less than 0.01 µM; in the assay on SF-295 CNS, less than 0.01 µM; in the assay with SNB-19 CNS, less than 0.0126 µM; with BT-549 breast, less than 0.01 µM. The GI50 with HL-60(TB) leukemia, in the assay with RPMI-8226 leukemia and in the assay with SF-539 CNS was less than 0.01 µM throughout. The TGI with NCI/ADR-RES ovarian is more than 7.41 µM; in the assay on KM12 colon, 12.1 µM; in the assay on RXF 393 renal it was 6.3 µM; in the assay on SF-295 CNS, 12.4 µM; in the assay with SNB-19 CNS it was more than 100 µM; in the assay on BT-549 breast, 0.165 µM. Further, the TGI is less than 0.01 µM with HL-60(TB) leukemia, 29.7 µM with UACC-257 melanoma, 9.64 µM with RPMI-8226 leukemia and 0.766 µM in the assay with SF-539 CNS.

With `CC1=C2[C@@H](CC1)[C@]1(C)O[C@@](C(C)C)(C[C@H]1OC(=O)CO)[C@H]2OC(=O)CCCc1ccccc1`, the GI50 in the assay with NCI/ADR-RES ovarian was 3.87 µM; in the assay on KM12 colon, 5.97 µM; in the assay with RXF 393 renal it was 11.9 µM; with SF-295 CNS it was 12.5 µM; with SNB-19 CNS, 12.4 µM; with BT-549 breast it was 4.44 µM. The GI50 is 2.21 µM in the assay with HL-60(TB) leukemia, 13.1 µM in the assay with UACC-257 melanoma, 3.08 µM with RPMI-8226 leukemia and 14.2 µM in the assay on SF-539 CNS. Besides, the TGI in the assay with NCI/ADR-RES ovarian was determined as 20 µM; with KM12 colon, 20.1 µM; in the assay with RXF 393 renal, 25.6 µM; in the assay with SF-295 CNS, 24.9 µM; in the assay on SNB-19 CNS, 24.9 µM; with BT-549 breast, 15.7 µM. The TGI was 5.27 µM with HL-60(TB) leukemia, 27.2 µM with UACC-257 melanoma, more than 100 µM in the assay on RPMI-8226 leukemia and 27.5 µM in the assay on SF-539 CNS.

Source of the values: PubChem BioAssay (NCI).
